Here are results for three compounds from ChEMBL document CHEMBL3992488, “Anticancer agents interacting with membrane glucose transporters” (Medchemcomm, 2016).

One assay has as its system A2780S. The assay can be described thus: Cytotoxicity against human A2780S cells. It is filed as functional, cell-based.
The test system of a further assay is A2780cisR. The assay is described as follows: Cytotoxicity against human A2780cisR cells. Type of assay: functional, cell-based.
A short description of assay [1]: Inhibition of human LDH5.
For a further assay, the system named is A549. The assay is described as follows: Antitumor activity against human A549 cells xenografted in NU/J nude mouse assessed as inhibition of tumor volume at 10 mg/kg, ip administered daily for 10 weeks measured every 7 days during compound dosing relative to control. Type of assay: functional.

With `CC(=O)N[C@H](C(=O)N[C@H]1C(O)O[C@H](CO)[C@@H](O)[C@@H]1O)C(C)(C)SN=O` (some centres undefined), the IC50 with A2780S came to 4.2 nM; in the assay with A2780cisR it was 380 nM.

With `COC(=O)c1cc2c(C(F)(F)F)cc(-c3ccccc3)cc2n1O`, the affinity in assay [1], expressed as Ki, was 5100 nM.

For `O=C(Oc1cccc(F)c1OC(=O)c1cccc(O)c1)c1cccc(O)c1`, the inhibition in vivo at 10 mg/kg in the assay with A549 is above 70%.
